Assay results published in patent US5908842A, “Substituted 2-acylamino-pyridines as inhibitors of nitric oxide synthase” (Merck & Co., Inc., priority 1997, dated 1999).

Molecular target: Human Inducible Nitric Oxide Synthase (Homo sapiens, UniProt P35228)
Experiment: Inhibition of human inducible nitric oxide synthase (formation of L-[3H]citrulline from L-[3H]arginine)
Type: biochemical
Details: 1 μM L-Arg, pH 7.5, room temperature, 30 minutes; for inhibition at 50 µM: 50 μM inhibitor
From the text: J Lowenstein and S. H. Snyder in Methods in Enzymology, Vol. 233, L. Packer, ed., Academic Press, NY, 1994, Ch.26, pp. 264-269.
Various assays for NOS activity have been reported in the literature and are reviewed in the following: M. E. Murphy and E. Noack in Methods in Enzymology, Vol. 233, L. Packer, ed., Academic Press, NY, 1994, Ch.26, pp. 240-250 and J. M. Hevel and M. A. Marletta in Methods in Enzymology, Vol. 233, L. Packer, ed., Academic Press, NY, 1994, Ch.26, pp. 250-258. Details for the assay protocols to measure NOS activity are as follows:
NOS activity is measured as the formation of L-[2,3,4,5-^3 H]Citrullinefrom L-[2,3,4,5-^3 H]Arginine. The incubation buffer (100 μL) contained; 100 mM TES, pH 7.5, 5 μM FAD, 5 μM FMN, 10 μM BH4, 0.5 mM NADPH, 0.5 mM DTT, 0.5 mg/mL BSA, 2 mM CaCl2, 10 μg/mL calmodulin (bovine), 1 μM L-Arg, 0.2 μCi L-[2,3,4,5-^3 H]Arg, and the inhibitor in aqueous DMSO (max. 5 %). The reaction is initiated by addition of enzyme. Incubations are performed at room temperature for 30 minutes and stopped by the addition of an equal volume of quenching buffer consisting of 200 mM sodium citrate, pH 2.2, 0.02% sodium azide. Reaction products are separated by passing through a cation exchange resin and quantitated as cpm by scintillation counting. Percent inhibition is calculated relative to enzyme incubated without inhibitor according to: % inhibition =[…](cpm L-[2,3,4,5-^3 H]Cit with inhibitor/cpm L-[2,3,4,5-^3 H]Cit without inhibitor).

| SMILES | IC50 [µM] | inhibition at 50 µM [%] |
| --- | --- | --- |
| Cc1ccc(NC(=O)Nc2cc(C)ccn2)cc1 [Example 1, N-(2-(4-Methylpyridyl))-N'-(4-methylphenyl)-urea] | < 50 | 54 |
| Cc1ccnc(NC(N)=S)c1 [Example 2, N-(2-(4-Methylpyridyl))-thiourea] | < 50 | 63 |
| Cc1cc(C)nc(NC(N)=S)c1 [Example 3, N-(2-(4,6-dimethylpyridyl))-thiourea] | < 50 | 75 |
| C=CCNC(=S)Nc1ccc(C(F)(F)F)cn1 [Example 4, N-(2-(5-trifluoromethylpyridyl))-N'-allyl-thiourea] | < 10 | 86 |
| C=CCNC(=S)Nc1cc(C)cc(C)n1 [Example 5, N-(2-(4,6-dimethylpyridyl))-N'-allyl-thiourea] | < 50 | 51 |
| Cc1ccnc(NC(=S)NC(C)C)c1 [Example 6, N-(2-(4-Methylpyridyl))-N'-isopropyl-thiourea] | < 1 | 100 |
| CCNC(=S)Nc1cc(C)ccn1 [Example 7, N-(2-(4-Methylpyridyl))-N'-ethyl-thiourea] | < 10 |  |
| Cc1ccnc(NC(=S)Nc2ccccc2)c1 [Example 8, N-(2-(4-Methylpyridyl))-N'-phenyl-thiourea] |  | 50 |
| S=C(Nc1ccc(Br)cc1)Nc1ccccn1 [Example 9, N-(2-Pyridyl)-N'-(4-bromophenyl)-thiourea] | < 50 | 55 |
| Cc1ccnc(NC(=S)Nc2cccc3ccccc23)c1 [Example 10, N-(2-(4-Methylpyridyl))-N'-(1-naphthyl)-thiourea] |  | 54 |
| Cc1ccnc(NC(=S)Nc2cccc(F)c2)c1 [Example 11, N-(2-(4-Methylpyridyl))-N'-(3-fluorophenyl)-thiourea] | < 50 | 70 |
| Cc1ccnc(NC(=S)NCc2ccccc2)c1 [Example 12] | < 50 | 76 |
| Cc1ccnc(NC(=S)NC2CC(C)CC(C)(C)C2)c1 (stereo not shown) [Example 13, N-(2-(4-Methylpyridyl))-N'-(3,3,,5-trimethylcyclohexyl)-thiourea] | < 50 | 57 |
| Cc1ccnc(NC(=O)NC(=O)c2ccccc2)c1 [Example 14, N-(2-(4-Methylpyridyl))-N'-benzoyl-urea] | < 10 | 96 |
| Cc1ccnc(NC(=S)NCCC[C@H](N)C(=O)O)c1 [Example 15, N-(2-(4-Methylpyridyl))-N'-(((S)-4-amino-4-carboxy)-n-butyl)-thiourea] | < 10 | 85 |
| CCN(CC)S(=O)(=O)NC(=O)Nc1ccccn1 [Example 16, N-(2-Pyridyl)-N'-(diethylaminosulfonyl)-urea] | < 10 | 55 |
| CCN(CC)S(=O)(=O)NC(=O)Nc1ncccc1C [Example 17] | < 10 |  |
| CCN(CC)S(=O)(=O)NC(=O)Nc1cc(C)ccn1 [Example 18] | < 1 | 92 |
| CCN(CC)S(=O)(=O)NC(=O)Nc1ccc(C)cn1 [Example 19] | < 50 |  |
| CCN(CC)S(=O)(=O)N(C)C(=O)Nc1cc(C)ccn1 [Example 20] | < 1 |  |
| COC(=O)C(=O)Nc1cc(C)ccn1 [Example 21, Oxalamide, N-(4-methyl-2-pyridyl), methyl ester] | < 1 |  |
| COC(=O)CC(=O)Nc1cc(C)ccn1 [Example 22, Malonamide, N-(4-methyl-2-pyridyl), methyl ester] | > 50 | 57 |
